According to patent US12415815B2, “Pyrido[2,3-e]oxazine derivatives as agricultural chemicals” (GLOBACHEM NV, priority 2020, dated 2025):
Converted amounts (≈) assume the structure as drawn.

Legend:
Format in all cases: cell-based
[1] = system: Botrytis cinerea; experiment: Fungicidal activity screen in amended agar, 96 well plates, Botrytis cinerea; conditions: Medium N agar, 5,000 spores/ml, 20, 2, 0.2 and 0.02 ppm, room temperature (18° C.), assessed after 3 to 4 days, read-out: Botrytis (fungal growth vs DMSO controls, EC50 ranking)
Experimental: (§1) Compounds were screened in 96 well plates with 10 compounds per plate. Each compound was screened using agar amended to 20, 2, 0.2 and 0.02 ppm of the test material. Proline at 50 and 10 ppm and 0.2% DMSO were used respectively as positive and negative controls. Each test concentration and standard were tested twice on a plate.
(§2) Compounds were screened against the following three fungal pathogens—Botrytis cinerea, Alternaria alternata and Zymoseptoria tritici. The agar used in the test varied depending on the pathogen with Medium N used for B. cinerea and A. alternata and 1% potato dextrose agar for Z. tritici. For each pathogen sufficient spores were added to the appropriate agar to give 1,000 spores/mL agar of A. alternata, 5,000 spores/ml agar of B. cinerea and 10,000 spores/mL agar of Z. tritici.
(§3) A ×10 stock solution in 2% DMSO was produced for each dose i.e. 200, 20, 2 and 0.2 ppm, and 10 μl of this added to the appropriate wells on the plate. An equivalent amount of 2% DMSO and Proline stock at 500 and 100 ppm were added for the controls. To each well, 90 μl of the appropriate agar spore suspension was added to give the final well concentrations outlined in the first paragraph.
(§4) Plates were incubated at room temperature (18° C.) and assessed after: • a) 3 to 4 days A. alternata and B. cinerea • b) 7 days for Z. tritici
(§5) The amount of fungal growth in each well was compared to the DMSO controls and scored according to the following key: • A—EC50<2 ppm • B—2≤EC50<20 • C—EC50≥20 • D—No activity detected at the highest dose tested • NT—Not tested

[2] = system: Alternaria alternata; experiment: Fungicidal activity screen in amended agar, 96 well plates, Alternaria alternata; conditions: Medium N agar, 1,000 spores/mL, 20, 2, 0.2 and 0.02 ppm, room temperature (18° C.), assessed after 3 to 4 days, read-out: Alternaria (fungal growth vs DMSO controls, EC50 ranking)
Experimental: as §1, §2, §3, §4, §5

[3] = system: Zymoseptoria tritici; experiment: Fungicidal activity screen in amended agar, 96 well plates, Zymoseptoria tritici; conditions: Zymoseptoria tritici, 168 h; 1% potato dextrose agar, 10,000 spores/mL, 20, 2, 0.2 and 0.02 ppm, room temperature (18° C.), assessed after 7 days; read-out: Zymoseptoria (fungal growth vs DMSO controls, EC50 ranking)
Experimental: as §1, §2, §3, §4, §5

COc1ccnc2c(=O)n(-c3nc4ccc(Cc5ccccc5Cl)cc4s3)c(=S)oc12 [Example 29, 3-(6-(2-Chlorobenzyl)benzo[d]thiazol-2-yl)-8-methoxy-2-thioxo-2,3-dihydro-4H-pyrido[2,3-e][1,3]oxazin-4-one]
EC50 [1]: ≥ 20 µg/mL | EC50 [2]: ≥ 20 µg/mL | EC50 [3]: < 2 µg/mL

COc1ccnc2c(=O)n(-c3nc4ccc(Oc5cccnc5Cl)cc4s3)c(=S)oc12 [Example 36, 3-(6-((2-chloropyridin-3-yl)oxy)benzo[d]thiazol-2-yl)-8-methoxy-2-thioxo-2,3-dihydro-4H-pyrido[2,3-e][1,3]oxazin-4-one]
EC50 [1]: ≥ 20 µg/mL | EC50 [2]: ≥ 20 µg/mL | EC50 [3]: < 2 µg/mL

COc1ccnc2c(=O)n(-c3nc4ccc(Sc5ccccc5Cl)nc4s3)c(=S)oc12 [Example 38, 3-(5-((2-chlorophenyl)thio)thiazolo [5,4-b]pyridin-2-yl)-8-methoxy-2-thioxo-2,3-dihydro-4H-pyrido[2,3-e][1,3]oxazin-4-one]
EC50 [1]: ≥ 20 µg/mL | EC50 [2]: ≥ 20 µg/mL | EC50 [3]: < 2 µg/mL

COc1ccnc2c(=O)n(-c3nc4ccc(Oc5ccccc5OC(F)(F)F)cc4s3)c(=S)oc12 [Example 39, 8-methoxy-2-thioxo-3-(6-(2-(trifluoromethoxy)phenoxy)benzo[d]thiazol-2-yl)-2,3-dihydro-4H-pyrido[2,3-e][1,3]oxazin-4-one]
EC50 [1]: ≥ 20 µg/mL | EC50 [2]: ≥ 20 µg/mL | EC50 [3]: < 2 µg/mL

COc1ccnc2c(=O)n(-c3nc4ccc(Oc5ccccc5Cl)nc4s3)c(=S)oc12 [Example 40, 3-(5-(2-chlorophenoxy)thiazolo[5,4-b]pyridin-2-yl)-8-methoxy-2-thioxo-2,3-dihydro-4H-pyrido[2,3-e][1,3] oxazin-4-one]
EC50 [1]: ≥ 20 µg/mL | EC50 [2]: ≥ 20 µg/mL | EC50 [3]: < 2 µg/mL

COc1ccnc2c(=O)n(-c3nc4ccc(Oc5cccnc5Cl)nc4s3)c(=S)oc12 [Example 41, 3-(5-((2-chloropyridin-3-yl)oxy)thiazolo[5,4-b]pyridin-2-yl)-8-methoxy-2-thioxo-2,3-dihydro-4H-pyrido[2,3-e][1,3]oxazin-4-one]
EC50 [1]: ≥ 20 µg/mL | EC50 [2]: ≥ 20 µg/mL | EC50 [3]: ≥ 20 µg/mL

COc1ccccc1Oc1ccc2nc(-n3c(=S)oc4c(OC)ccnc4c3=O)sc2n1 [Example 42, 8-methoxy-3-(5-(2-methoxyphenoxy)thiazolo[5,4-b]pyridin-2-yl)-2-thioxo-2,3-dihydro-4H-pyrido[2,3-e][1,3]oxazin-4-one]
EC50 [1]: ≥ 20 µg/mL | EC50 [2]: ≥ 20 µg/mL | EC50 [3]: 2 to 20 µg/mL (≈ 4.29 to 42.9 µM)

COc1ccnc2c(=O)n(-c3nc4ccc(Sc5cccnc5Cl)cc4s3)c(=S)oc12 [Example 47, 3-(6-((2-chloropyridin-3-yl)thio)benzo[d]thiazol-2-yl)-8-methoxy-2-thioxo-2,3-dihydro-4H-pyrido[2,3-e][1,3]oxazin-4-one]
EC50 [1]: ≥ 20 µg/mL | EC50 [2]: ≥ 20 µg/mL | EC50 [3]: < 2 µg/mL

COc1ccnc2c(=O)n(-c3nc4ccc(Oc5ccc(C(F)(F)F)cc5Cl)nc4s3)c(=S)oc12 [Example 48, 3-(5-(2-chloro-4-(trifluoromethyl)phenoxy)thiazolo[5,4-b]pyridin-2-yl)-8-methoxy-2-thioxo-2,3-dihydro-4H-pyrido[2,3-e][1,3]oxazin-4-one]
EC50 [1]: ≥ 20 µg/mL | EC50 [2]: ≥ 20 µg/mL | EC50 [3]: < 2 µg/mL

CCOc1ccccc1Oc1ccc2nc(-n3c(=S)oc4c(OC)ccnc4c3=O)sc2c1 [Example 49, 3-(6-(2-ethoxyphenoxy)benzo[d]thiazol-2-yl)-8-methoxy-2-thioxo-2,3-dihydro-4H-pyrido[2,3-e][1,3]oxazin-4-one]
EC50 [1]: ≥ 20 µg/mL | EC50 [2]: ≥ 20 µg/mL | EC50 [3]: < 2 µg/mL

COc1ccnc2c(=O)n(-c3nc4ccc(Oc5ccccc5OC(F)F)cc4s3)c(=S)oc12 [Example 50, 3-(6-(2-(difluoromethoxy)phenoxy)benzo[d]thiazol-2-yl)-8-methoxy-2-thioxo-2,3-dihydro-4H-pyrido[2,3-e][1,3]oxazin-4-one]
EC50 [1]: ≥ 20 µg/mL | EC50 [2]: ≥ 20 µg/mL | EC50 [3]: < 2 µg/mL
